According to patent US11168073B2, “3,3-difluoroallylamines or salts thereof and pharmaceutical compositions comprising the same” (YUHAN CORPORATION, priority 2018, dated 2021):
Counter-ions that a name gives are not always drawn.

Assays:
Format in all cases: biochemical
[1] = biological target: T1, recombinant human MAO-B (monoamine oxidase-B) (Homo sapiens, UniProt P27338); assay: Activity evaluation on recombinant human MAO-B (Amplex Red/HRP-coupled assay, 1 mM benzylamine substrate); conditions: 1 mM benzylamine, read-out: Inhibitory Activity (IC50, nM) MAO-B
T1 construct: purchased Sigma-Aldrich
T1 sequence (P27338 1-520): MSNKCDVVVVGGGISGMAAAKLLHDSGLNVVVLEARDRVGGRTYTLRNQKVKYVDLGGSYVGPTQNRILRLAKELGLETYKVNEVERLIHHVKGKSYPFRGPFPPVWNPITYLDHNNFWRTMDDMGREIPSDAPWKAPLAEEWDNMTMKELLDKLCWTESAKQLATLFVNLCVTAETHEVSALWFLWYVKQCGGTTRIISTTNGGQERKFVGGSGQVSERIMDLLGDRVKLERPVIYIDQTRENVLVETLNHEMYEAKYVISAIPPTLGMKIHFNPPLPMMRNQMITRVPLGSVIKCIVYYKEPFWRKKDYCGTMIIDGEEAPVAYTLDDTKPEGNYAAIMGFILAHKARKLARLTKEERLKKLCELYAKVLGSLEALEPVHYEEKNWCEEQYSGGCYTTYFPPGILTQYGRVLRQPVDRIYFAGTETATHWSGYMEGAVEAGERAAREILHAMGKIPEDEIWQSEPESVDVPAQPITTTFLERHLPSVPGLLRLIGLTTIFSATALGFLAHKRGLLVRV
Method: (§1) The compounds according to the present technology were evaluated in terms of activity on recombinant human VAP-1 (R&D systems) by measuring the level of hydrogen peroxide in horseradish peroxidase (HRP)-coupled reaction using Amplex Red Hydrogen Peroxide Assay Kit (Molecular Probes, Invitrogen, USA). The experiment was carried out at room temperature using benzylamine as a substrate. In the HRP-coupled reaction, hydrogen peroxide oxidation of 10-acetyl-3,7-dihydroxyphenoxazine (Amplex Red reagent) produces resorufin, which is a highly fluorescent compound. Briefly, the test compound was dissolved in dimethyl sulfoxide (DMSO) at a concentration of 20 mM. The dose-response assessment was made by 1:3 serial dilution in DMSO, thereby creating a 8 point curve. The concentration of the upper part was controlled according to the efficacy of the compounds, followed by the dilution with a reaction buffer solution to obtain a final DMSO concentration of less than 1%. To each well of a 96 black well plate, human VAP-1 purified in 50 mM sodium phosphate buffer solution (pH7.4) was added. The test compounds dissolved in DMSO were incubated with the human VAP-1 enzymes at 37° C. for 30 minutes. After 30-minute incubation, each well was added with a reaction mixture containing 200 uM Amplex Red reagent prepared from 50 mM sodium phosphate buffer solution (pH 7.4), 1 mM benzylamine, and 1 U/mL HRP. Fluorescence intensity was measured at several time points during 1-2 hours using a microplate reader (Flexstation3, Molecular Devices) under the wavelength condition exciting at 544 nm and reading the emission at 590 nm. The inhibitory effect of the compounds was measured as a decrease (%) in the signal rate as compared to the control group without any inhibitor (only diluted DMSO). Data was fixed to a logistic model with four variables and IC50 value was calculated using GraphPad Prism program.
(§2) In addition, the compounds according to the present technology were evaluated in terms of activity on a recombinant human MAO-A (monoamine oxidase-A, Sigma-Aldrich) and a recombinant human MAO-B (monoamine oxidase-B, Sigma-Aldrich) by using as substrates, 0.5 mM tyramine and 1 mM benzylamine, respectively, with a method similar to the activity evaluation method for recombinant human VAP-1. The compounds according to the present technology were also evaluated in terms of activity on a recombinant human DAO (diamine oxidase, R&D systems) by using as a substrate 1 mM putrescine with a method similar to the activity evaluation method for recombinant human VAP-1.

[2] = biological target: T2, recombinant human VAP-1 (Homo sapiens, UniProt Q16853); assay: Activity evaluation on recombinant human VAP-1 (Amplex Red/HRP-coupled hydrogen peroxide assay, benzylamine substrate); conditions: recombinant human VAP-1; 30 min preincubation at 37° C.; 1 mM benzylamine; read-out: Inhibitory Activity (IC50, nM) human VAP-1
T2 construct: purchased R&D systems
T2 sequence (Q16853 1-763): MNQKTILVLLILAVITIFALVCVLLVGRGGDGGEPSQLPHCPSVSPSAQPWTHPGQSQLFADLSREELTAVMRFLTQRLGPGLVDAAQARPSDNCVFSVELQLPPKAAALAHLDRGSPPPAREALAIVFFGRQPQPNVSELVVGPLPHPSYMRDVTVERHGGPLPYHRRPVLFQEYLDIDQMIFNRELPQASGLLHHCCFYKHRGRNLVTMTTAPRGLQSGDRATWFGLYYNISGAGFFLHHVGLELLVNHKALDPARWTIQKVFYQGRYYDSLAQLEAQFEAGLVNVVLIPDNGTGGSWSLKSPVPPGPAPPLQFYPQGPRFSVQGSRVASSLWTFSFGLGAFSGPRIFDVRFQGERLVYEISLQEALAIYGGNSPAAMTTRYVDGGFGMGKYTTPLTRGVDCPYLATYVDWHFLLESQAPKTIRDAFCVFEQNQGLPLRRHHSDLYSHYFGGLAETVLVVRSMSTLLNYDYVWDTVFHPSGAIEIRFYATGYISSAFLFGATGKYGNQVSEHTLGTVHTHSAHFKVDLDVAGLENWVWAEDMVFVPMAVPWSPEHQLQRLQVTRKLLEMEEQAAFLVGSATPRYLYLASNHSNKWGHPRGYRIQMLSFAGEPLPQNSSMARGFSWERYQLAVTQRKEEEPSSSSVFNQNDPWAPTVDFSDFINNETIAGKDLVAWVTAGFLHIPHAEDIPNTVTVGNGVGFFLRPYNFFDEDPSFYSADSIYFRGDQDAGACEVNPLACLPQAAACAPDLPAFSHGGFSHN
Method: as §1

[3] = biological target: T3, recombinant human MAO-A (monoamine oxidase-A) (Homo sapiens, UniProt P21397); assay: Activity evaluation on recombinant human MAO-A (Amplex Red/HRP-coupled assay, 0.5 mM tyramine substrate); conditions: 0.5 mM tyramine, read-out: Inhibitory Activity (IC50, nM) MAO-A
T3 construct: purchased Sigma-Aldrich
T3 sequence (P21397 1-527): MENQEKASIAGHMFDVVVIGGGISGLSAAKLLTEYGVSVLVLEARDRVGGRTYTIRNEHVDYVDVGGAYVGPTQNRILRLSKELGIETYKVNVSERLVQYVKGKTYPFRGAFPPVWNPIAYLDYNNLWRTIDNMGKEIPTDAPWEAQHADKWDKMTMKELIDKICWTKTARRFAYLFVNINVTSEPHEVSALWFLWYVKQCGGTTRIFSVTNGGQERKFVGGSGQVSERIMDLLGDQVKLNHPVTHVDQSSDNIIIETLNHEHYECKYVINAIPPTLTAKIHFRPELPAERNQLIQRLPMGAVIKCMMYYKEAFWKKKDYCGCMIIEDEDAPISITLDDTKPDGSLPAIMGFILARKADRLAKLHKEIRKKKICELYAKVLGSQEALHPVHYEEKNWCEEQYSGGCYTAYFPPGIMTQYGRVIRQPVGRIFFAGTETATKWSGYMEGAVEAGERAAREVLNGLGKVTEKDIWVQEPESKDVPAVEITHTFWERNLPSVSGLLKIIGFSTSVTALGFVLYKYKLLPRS
Method: as §1, §2

[4] = biological target: T4, recombinant human DAO (diamine oxidase) (Homo sapiens, UniProt P19801); assay: Activity evaluation on recombinant human DAO (Amplex Red/HRP-coupled assay, 1 mM putrescine substrate); conditions: 1 mM putrescine, read-out: Inhibitory Activity (IC50, nM) DAO
T4 construct: purchased R&D systems
T4 sequence (P19801 20-751): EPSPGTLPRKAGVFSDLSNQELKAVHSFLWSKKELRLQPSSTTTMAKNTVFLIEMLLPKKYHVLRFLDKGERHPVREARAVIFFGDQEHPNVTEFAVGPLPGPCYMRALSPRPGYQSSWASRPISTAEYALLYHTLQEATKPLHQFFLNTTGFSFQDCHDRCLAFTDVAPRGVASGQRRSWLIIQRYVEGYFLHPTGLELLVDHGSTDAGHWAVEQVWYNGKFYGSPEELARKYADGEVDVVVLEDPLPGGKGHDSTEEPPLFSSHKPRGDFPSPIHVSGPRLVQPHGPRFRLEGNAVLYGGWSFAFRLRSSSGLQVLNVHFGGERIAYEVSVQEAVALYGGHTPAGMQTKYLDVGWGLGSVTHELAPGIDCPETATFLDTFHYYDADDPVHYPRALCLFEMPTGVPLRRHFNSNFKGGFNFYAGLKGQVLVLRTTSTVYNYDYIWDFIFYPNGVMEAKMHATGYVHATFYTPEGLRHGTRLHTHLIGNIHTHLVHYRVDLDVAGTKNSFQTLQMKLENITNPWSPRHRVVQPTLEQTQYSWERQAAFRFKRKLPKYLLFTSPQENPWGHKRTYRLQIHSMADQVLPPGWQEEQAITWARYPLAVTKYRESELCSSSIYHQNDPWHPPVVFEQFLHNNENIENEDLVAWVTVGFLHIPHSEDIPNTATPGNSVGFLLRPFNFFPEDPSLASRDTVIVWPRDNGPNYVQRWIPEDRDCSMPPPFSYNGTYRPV
Method: as §1, §2

Row | Compound | IC50 [1] | IC50 [2] | IC50 [3] | IC50 [4]
1 | CS(=O)(=O)c1ccc(-c2ccc(-n3cnn(CC(CN)=C(F)F)c3=O)cc2F)cc1 [Example 24, 2-[2-(aminomethyl)-3,3-difluoro-allyl]-4-[3-fluoro-4-(4-methylsulfonylphenyl)phenyl]-1,2,4-triazol-3-one Trifluoroacetate] | 3300 nM | 2.7 nM | > 100000 nM | 600 nM
2 | NCC(Cn1ncn(-c2ccc(-c3ccc(N4CCNCC4)cc3)c(F)c2)c1=O)=C(F)F [Example 25, 2-[2-(aminomethyl)-3,3-difluoro-allyl]-4-[3-fluoro-4-(4-piperazin-1-ylphenyl)phenyl]-1,2,4-triazol-3-one Ditrifluoroacetate] | > 10000 nM | 1.7 nM | 6280 nM | 1300 nM
3 | CS(=O)(=O)c1ccc(-c2ccc(-n3cnn(CC(CN)=C(F)F)c3=O)c(F)c2)cc1 [Example 31, 2-[2-(aminomethyl)-3,3-difluoro-allyl]-4-[2-fluoro-4-(4-methylsulfonylphenyl)phenyl]-1,2,4-triazol-3-one Trifluoroacetate] | 870 nM | 0.2 nM | > 100000 nM | 59 nM
4 | NCC(Cn1ncn(-c2ccc(-c3ccc(N4CCNCC4)cc3)cc2F)c1=O)=C(F)F [Example 32, 2-[2-(aminomethyl)-3,3-difluoro-allyl]-4-[2-fluoro-4-(4-piperazin-1-ylphenyl)phenyl]-1,2,4-triazol-3-one Ditrifluoroacetate] | 17000 nM | 1.3 nM | > 100000 nM | 670 nM
5 | CN(C)c1ccc(-c2ccc(-n3cnn(CC(CN)=C(F)F)c3=O)c(F)c2)cn1 [Example 34, 2-[2-(aminomethyl)-3,3-difluoro-allyl]-4-[4-[6-(dimethylamino)-3-pyridyl]-2-fluoro-phenyl]-1,2,4-triazol-3-one Trifluoroacetate] | 770 nM | 0.3 nM | 27000 nM | 250 nM

The next molecules have a lower IC50 [1] than those just listed; values first:

Row | IC50 [1] | IC50 [2] | IC50 [3] | IC50 [4] | Compound
6 | 180 nM | 0.7 nM | > 100000 nM | 71 nM | NCC(Cn1ncn(-c2ccc(-c3ccc(C(F)(F)F)nc3)c(F)c2)c1=O)=C(F)F [Example 26, 2-[2-(aminomethyl)-3,3-difluoro-allyl]-4-[3-fluoro-4-[6-(trifluoromethyl)-3-pyridyl]phenyl]-1,2,4-triazol-3-one Trifluoroacetate]
7 | 350 nM | 0.4 nM | > 100000 nM | 380 nM | CN(C)c1ccc(-c2ccc(-n3cnn(CC(CN)=C(F)F)c3=O)cc2F)cn1 [Example 27, 2-[2-(aminomethyl)-3,3-difluoro-allyl]-4-[4-[6-(dimethylamino)-3-pyridyl]-3-fluoro-phenyl]-1,2,4-triazol-3-one Trifluoroacetate]
8 | 85 nM | 1.2 nM | > 100000 nM | 1600 nM | NCC(Cn1ncn(-c2ccc(-c3ccc4c(c3)OCO4)c(F)c2)c1=O)=C(F)F [Example 28, 2-[2-(aminomethyl)-3,3-difluoro-allyl]-4-[4-(1,3-benzodioxol-5-yl)-3-fluoro-phenyl]-1,2,4-triazol-3-one Trifluoroacetate]
9 | 150 nM | 0.2 nM | > 100000 nM | 200 nM | Cc1cc(-c2ccc(-n3cnn(CC(CN)=C(F)F)c3=O)cc2F)cc2c1NC(=O)CC2 [Example 29, 6-[4-[1-[2-(aminomethyl)-3,3-difluoro-allyl]-5-oxo-1,2,4-triazol-4-yl]-2-fluoro-phenyl]-8-methyl-3,4-dihydro-1H-quinolin-2-one Trifluoroacetate]
10 | 300 nM | 0.6 nM | > 100000 nM | 890 nM | CCn1cc(-c2ccc(-n3cnn(CC(CN)=C(F)F)c3=O)cc2F)cn1 [Example 30, 2-[2-(aminomethyl)-3,3-difluoro-allyl]-4-[4-(1-ethylpyrazol-4-yl)-3-fluoro-phenyl]-1,2,4-triazol-3-one Trifluoroacetate]
11 | 190 nM | 0.3 nM | 11000 nM | 17 nM | NCC(Cn1ncn(-c2ccc(-c3ccc(C(F)(F)F)nc3)cc2F)c1=O)=C(F)F [Example 33, 2-[2-(aminomethyl)-3,3-difluoro-allyl]-4-[2-fluoro-4-[6-(trifluoromethyl)-3-pyridyl]phenyl]-1,2,4-triazol-3-one Trifluoroacetate]
